In ChEMBL document CHEMBL1909046, “DrugMatrix in vitro pharmacology data”:

Columns and labels:
[1] = biological target: T1, Angiotensin-converting enzyme (Oryctolagus cuniculus, UniProt P12822); assay: biochemical; assay type: tissue-based, Lung;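 also: enzymatic inhibition of angiotensin-converting enzyme measured with FAPGG as the substrate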
T1 sequence (P12822 whole entry): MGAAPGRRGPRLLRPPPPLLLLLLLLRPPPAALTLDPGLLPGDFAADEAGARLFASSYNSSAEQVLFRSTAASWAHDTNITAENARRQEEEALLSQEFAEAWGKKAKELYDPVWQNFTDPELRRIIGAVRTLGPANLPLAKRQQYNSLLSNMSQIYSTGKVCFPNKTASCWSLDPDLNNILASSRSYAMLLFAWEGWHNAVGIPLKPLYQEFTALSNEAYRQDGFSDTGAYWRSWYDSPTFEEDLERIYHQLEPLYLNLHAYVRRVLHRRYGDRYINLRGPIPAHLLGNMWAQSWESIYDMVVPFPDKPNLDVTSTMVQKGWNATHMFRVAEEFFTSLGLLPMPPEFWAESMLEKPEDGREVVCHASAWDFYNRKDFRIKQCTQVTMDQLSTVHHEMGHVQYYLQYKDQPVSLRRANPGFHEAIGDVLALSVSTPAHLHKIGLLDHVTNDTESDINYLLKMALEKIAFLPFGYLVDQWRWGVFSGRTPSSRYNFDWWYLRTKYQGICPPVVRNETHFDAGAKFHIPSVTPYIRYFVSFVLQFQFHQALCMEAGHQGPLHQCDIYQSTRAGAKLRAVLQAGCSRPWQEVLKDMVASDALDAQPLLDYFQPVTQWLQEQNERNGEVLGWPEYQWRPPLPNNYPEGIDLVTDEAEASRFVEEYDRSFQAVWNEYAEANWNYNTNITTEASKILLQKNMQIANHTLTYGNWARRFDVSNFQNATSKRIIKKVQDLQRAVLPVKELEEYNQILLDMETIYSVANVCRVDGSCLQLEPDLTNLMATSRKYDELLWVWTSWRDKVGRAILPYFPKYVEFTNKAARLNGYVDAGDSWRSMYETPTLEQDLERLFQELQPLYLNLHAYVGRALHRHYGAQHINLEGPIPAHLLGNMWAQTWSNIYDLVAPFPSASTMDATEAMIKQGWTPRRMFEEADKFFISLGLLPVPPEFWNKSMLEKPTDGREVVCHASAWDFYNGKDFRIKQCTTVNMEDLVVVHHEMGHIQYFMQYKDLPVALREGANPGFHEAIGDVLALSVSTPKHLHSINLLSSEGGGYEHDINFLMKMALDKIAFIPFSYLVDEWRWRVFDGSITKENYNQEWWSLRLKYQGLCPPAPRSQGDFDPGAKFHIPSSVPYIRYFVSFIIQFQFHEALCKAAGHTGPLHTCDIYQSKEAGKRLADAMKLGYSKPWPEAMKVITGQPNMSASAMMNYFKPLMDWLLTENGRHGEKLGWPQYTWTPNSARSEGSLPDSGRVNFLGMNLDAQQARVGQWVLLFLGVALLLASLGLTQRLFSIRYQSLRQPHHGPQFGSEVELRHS

[2] = biological target: T2, C-C chemokine receptor type 4 (Homo sapiens, UniProt P51679); assay type: cell membranes, Chem-1, Membrane; details: chem-1
T2 sequence (P51679 whole entry): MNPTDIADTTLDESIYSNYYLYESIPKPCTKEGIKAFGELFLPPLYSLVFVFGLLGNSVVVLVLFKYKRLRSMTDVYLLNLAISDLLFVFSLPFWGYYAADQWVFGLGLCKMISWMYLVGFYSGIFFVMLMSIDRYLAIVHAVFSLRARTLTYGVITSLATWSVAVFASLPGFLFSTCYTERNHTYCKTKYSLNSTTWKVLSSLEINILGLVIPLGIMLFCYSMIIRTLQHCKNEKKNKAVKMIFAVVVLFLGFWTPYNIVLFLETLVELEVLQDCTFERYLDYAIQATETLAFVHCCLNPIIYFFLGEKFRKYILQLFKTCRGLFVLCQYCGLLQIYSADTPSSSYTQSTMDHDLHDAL

Calcitonin receptor = biological target: T3, Calcitonin receptor (Homo sapiens, UniProt P30988); assay type: cell membranes, Membrane; details: t47d
T3 sequence (P30988 whole entry): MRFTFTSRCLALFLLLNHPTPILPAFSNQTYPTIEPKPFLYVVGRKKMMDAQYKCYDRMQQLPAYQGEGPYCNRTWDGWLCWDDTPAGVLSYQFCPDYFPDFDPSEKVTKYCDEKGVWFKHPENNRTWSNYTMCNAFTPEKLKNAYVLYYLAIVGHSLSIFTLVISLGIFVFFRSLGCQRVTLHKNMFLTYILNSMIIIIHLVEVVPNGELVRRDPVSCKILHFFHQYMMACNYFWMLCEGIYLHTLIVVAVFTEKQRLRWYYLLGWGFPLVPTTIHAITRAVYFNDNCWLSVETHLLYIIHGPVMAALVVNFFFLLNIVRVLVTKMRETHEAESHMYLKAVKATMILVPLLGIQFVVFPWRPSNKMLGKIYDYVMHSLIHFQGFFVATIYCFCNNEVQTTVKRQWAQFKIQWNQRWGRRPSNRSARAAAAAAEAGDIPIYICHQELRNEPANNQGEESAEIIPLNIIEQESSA

Vasopressin V1a receptor = Vasopressin V1a receptor (Homo sapiens, UniProt P37288); assay type: cell membranes, Membrane; details: hek293
[3] = biological target: T4, Neuropeptide Y receptor type 2 (Homo sapiens, UniProt P49146); assay type: cell membranes, Membrane; details: kan-ts
T4 sequence (P49146 whole entry): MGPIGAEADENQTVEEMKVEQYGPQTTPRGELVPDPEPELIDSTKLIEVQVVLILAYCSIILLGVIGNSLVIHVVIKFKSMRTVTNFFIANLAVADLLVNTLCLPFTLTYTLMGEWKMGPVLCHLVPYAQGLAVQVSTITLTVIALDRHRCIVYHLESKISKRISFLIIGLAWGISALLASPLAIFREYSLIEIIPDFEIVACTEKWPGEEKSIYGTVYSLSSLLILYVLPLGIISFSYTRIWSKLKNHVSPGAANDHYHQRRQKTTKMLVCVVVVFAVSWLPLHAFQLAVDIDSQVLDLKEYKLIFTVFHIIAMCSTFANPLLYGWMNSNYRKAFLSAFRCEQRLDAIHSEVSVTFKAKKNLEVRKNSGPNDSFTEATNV

[4] = biological target: T5, Neuropeptide Y receptor type 1 (Homo sapiens, UniProt P25929); assay type: cell membranes, Membrane; details: sk-n-mc
T5 sequence (P25929 whole entry): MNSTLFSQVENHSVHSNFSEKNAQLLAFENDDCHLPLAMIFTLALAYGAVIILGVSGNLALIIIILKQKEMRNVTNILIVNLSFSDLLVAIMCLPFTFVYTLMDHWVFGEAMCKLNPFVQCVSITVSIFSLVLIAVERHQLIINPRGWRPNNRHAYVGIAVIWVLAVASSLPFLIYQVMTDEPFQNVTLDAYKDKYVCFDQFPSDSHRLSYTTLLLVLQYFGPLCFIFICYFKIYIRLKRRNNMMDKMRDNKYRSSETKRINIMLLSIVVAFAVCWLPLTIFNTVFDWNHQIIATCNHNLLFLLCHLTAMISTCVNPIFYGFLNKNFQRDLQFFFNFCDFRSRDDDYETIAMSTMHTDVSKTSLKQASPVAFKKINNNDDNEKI
Also: in other assays of this panel Not Active means under 50% inhibition at 10 µM.

Vasopressin V1a receptor, sequence (P37288 whole entry): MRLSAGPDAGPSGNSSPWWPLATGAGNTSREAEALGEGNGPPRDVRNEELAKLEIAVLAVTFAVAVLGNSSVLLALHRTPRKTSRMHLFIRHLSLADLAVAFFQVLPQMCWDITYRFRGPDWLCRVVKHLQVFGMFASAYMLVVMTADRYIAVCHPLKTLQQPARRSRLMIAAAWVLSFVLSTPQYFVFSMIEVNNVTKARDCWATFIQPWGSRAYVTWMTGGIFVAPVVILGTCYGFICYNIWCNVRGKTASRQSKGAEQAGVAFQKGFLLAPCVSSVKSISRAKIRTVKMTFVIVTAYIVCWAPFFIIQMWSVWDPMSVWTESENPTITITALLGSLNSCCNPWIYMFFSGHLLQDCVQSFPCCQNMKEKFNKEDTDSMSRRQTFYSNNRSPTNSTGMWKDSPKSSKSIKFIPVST

C[C@]12CCC(=O)C[C@@H]1CC[C@@H]1[C@@H]2CC[C@]2(C)[C@@H](O)CC[C@@H]12 [STANOLONE]
Not Active: IC50 [1] | IC50 [2] | IC50 (Calcitonin receptor) | IC50 (Vasopressin V1a receptor) | IC50 [3] | IC50 [4]

CCN(CC)CCNC(=O)c1cc(Cl)c(N)cc1OC [METOCLOPRAMIDE]
Not Active: IC50 [1] | IC50 [2] | IC50 (Calcitonin receptor) | IC50 (Vasopressin V1a receptor) | IC50 [3] | IC50 [4]

CN(C)CCC=C1c2ccccc2COc2ccccc21 [DOXEPIN]
Not Active: IC50 [1] | IC50 [2] | IC50 (Calcitonin receptor) | IC50 (Vasopressin V1a receptor) | IC50 [3] | IC50 [4]

COC(=O)Nc1nc2ccc(C(=O)c3ccccc3)cc2[nH]1 [MEBENDAZOLE]
Not Active: IC50 [1] | IC50 [2] | IC50 (Calcitonin receptor) | IC50 (Vasopressin V1a receptor) | IC50 [3] | IC50 [4]

O=[As][O-].[Na+] [SODIUM ARSENITE]
Not Active: IC50 [1] | IC50 [2] | IC50 (Calcitonin receptor) | IC50 (Vasopressin V1a receptor) | IC50 [3] | IC50 [4]

CS(=O)(=O)c1ccc(C2=C(c3ccccc3)C(=O)OC2)cc1 [ROFECOXIB]
Not Active: IC50 [1] | IC50 [2] | IC50 (Calcitonin receptor) | IC50 (Vasopressin V1a receptor) | IC50 [3] | IC50 [4]

CC1(C)[C@H](C(=O)O)N2C(=O)C[C@H]2S1(=O)=O [SULBACTAM]
Not Active: IC50 [1] | IC50 [2] | IC50 (Calcitonin receptor) | IC50 (Vasopressin V1a receptor) | IC50 [3] | IC50 [4]

CC(N)C12CC3CC(CC(C3)C1)C2 (stereo not given) [RIMANTADINE]
Not Active: IC50 [1] | IC50 [2] | IC50 (Calcitonin receptor) | IC50 (Vasopressin V1a receptor) | IC50 [3] | IC50 [4]

CC[C@H](C)C(=O)O[C@H]1CCC=C2C=C[C@H](C)[C@H](CC[C@@H]3C[C@@H](O)CC(=O)O3)[C@H]21 [MEVASTATIN]
Not Active: IC50 [1] | IC50 [2] | IC50 (Calcitonin receptor) | IC50 (Vasopressin V1a receptor) | IC50 [3] | IC50 [4]

O=C(OC[C@H]1O[C@@H](OC(=O)c2cc(O)c(O)c(OC(=O)c3cc(O)c(O)c(O)c3)c2)[C@H](OC(=O)c2cc(O)c(O)c(OC(=O)c3cc(O)c(O)c(O)c3)c2)[C@@H](OC(=O)c2cc(O)c(O)c(OC(=O)c3cc(O)c(O)c(O)c3)c2)[C@@H]1OC(=O)c1cc(O)c(O)c(OC(=O)c2cc(O)c(O)c(O)c2)c1)c1cc(O)c(O)c(OC(=O)c2cc(O)c(O)c(O)c2)c1 [TANNIC ACID]
Not Active: IC50 [1] | IC50 [2] | IC50 (Calcitonin receptor) | IC50 (Vasopressin V1a receptor) | IC50 [3] | IC50 [4]

LEAD(IV) ACETATE
Not Active: IC50 [1] | Ki [1] | IC50 [2] | Ki [2] | IC50 (Calcitonin receptor) | Ki (Calcitonin receptor) | IC50 (Vasopressin V1a receptor) | Ki (Vasopressin V1a receptor) | IC50 [3] | Ki [3] | IC50 [4] | Ki [4]

CO[C@@H]1[C@@H](OC)[C@H](C)[C@@](O)(CC(=O)O)O[C@H]1[C@H](C)[C@H]1O[C@@]2(CC[C@@](C)([C@H]3CC[C@@](C)([C@@H]4O[C@@H]([C@H]5O[C@](C)(O)[C@H](C)C[C@@H]5C)C[C@@H]4O[C@@H]4C[C@H](OC)[C@@H](OC)[C@H](C)O4)O3)O2)C[C@H](O)[C@H]1C.N [MADURAMICIN]
Not Active: IC50 [1] | IC50 [2] | IC50 (Calcitonin receptor) | IC50 (Vasopressin V1a receptor) | IC50 [3] | IC50 [4]

C[N+]1(C)[C@@H]2C[C@@H](OC(=O)[C@H](CO)c3ccccc3)C[C@H]1[C@@H]1O[C@@H]12.[Br-] [METHSCOPOLAMINE BROMIDE]
Not Active: IC50 [1] | IC50 [2] | IC50 (Calcitonin receptor) | IC50 (Vasopressin V1a receptor) | IC50 [3] | IC50 [4]

Cc1nnc(NS(=O)(=O)c2ccc(N)cc2)s1 [SULFAMETHIZOLE]
Not Active: IC50 [1] | IC50 [2] | IC50 (Calcitonin receptor) | IC50 (Vasopressin V1a receptor) | IC50 [3] | IC50 [4]

Cc1ccc(S(=O)(=O)NC(=O)NN2CCCCCC2)cc1 [TOLAZAMIDE]
Not Active: IC50 [1] | IC50 [2] | IC50 (Calcitonin receptor) | IC50 (Vasopressin V1a receptor) | IC50 [3] | IC50 [4]

CCC(C)(C)C(=O)O[C@H]1C[C@@H](C)C=C2C=C[C@H](C)[C@H](CC[C@@H]3C[C@@H](O)CC(=O)O3)[C@H]21 [SIMVASTATIN]
Not Active: IC50 [1] | IC50 [2] | IC50 (Calcitonin receptor) | IC50 (Vasopressin V1a receptor) | IC50 [3] | IC50 [4]

Cc1ccnc(NS(=O)(=O)c2ccc(N)cc2)n1 [SULFAMERAZINE]
Not Active: IC50 [1] | IC50 [2] | IC50 (Calcitonin receptor) | IC50 (Vasopressin V1a receptor) | IC50 [3] | IC50 [4]

OC[C@@H](O)[C@@H](O)[C@H](O)[C@H](O)CO [MANNITOL]
Not Active: IC50 [1] | IC50 [2] | IC50 (Calcitonin receptor) | IC50 (Vasopressin V1a receptor) | IC50 [3] | IC50 [4]

CCN(CC)N=O [N-NITROSODIETHYLAMINE]
Not Active: IC50 [1] | IC50 [2] | IC50 (Calcitonin receptor) | IC50 (Vasopressin V1a receptor) | IC50 [3] | IC50 [4]
